In patent US20200017496A1 (priority 2017, published 2020):
Like-named read-outs stand apart in the source and are kept apart here.

Key:
OXA-51 = OXA-51 (Acinetobacter baumannii, UniProt Q5QT35)
Protocol: (§1) Method 1: β-Lactamase Inhibitory Activity, Determination of IC50 (Table 1)
(§2) Enzymes were cloned in E. coli expression vector, expressed and purified in house using classical procedures. […] After 30 min of pre-incubation at room temperature, 155 μL of NCF (100 μM final) were finally added in each well. […] Enzyme activity was obtained by subtracting the background from the final signal, and was converted to enzyme inhibition using non inhibited wells. IC50 curves were fitted to a classical Langmuir equilibrium model with Hill slope using XLFIT (IDBS).

SHV-12 = molecular target: T1, SHV-12 (Klebsiella pneumoniae, UniProt P0AD64, E235K/G234S/L31Q); assay: β-lactamase inhibitory activity, IC50 (nitrocefin hydrolysis); type: biochemical
T1 construct: made in house; host or cells: E. coli
T1 sequence (P0AD64 22-286 L31Q/G234S/E235K): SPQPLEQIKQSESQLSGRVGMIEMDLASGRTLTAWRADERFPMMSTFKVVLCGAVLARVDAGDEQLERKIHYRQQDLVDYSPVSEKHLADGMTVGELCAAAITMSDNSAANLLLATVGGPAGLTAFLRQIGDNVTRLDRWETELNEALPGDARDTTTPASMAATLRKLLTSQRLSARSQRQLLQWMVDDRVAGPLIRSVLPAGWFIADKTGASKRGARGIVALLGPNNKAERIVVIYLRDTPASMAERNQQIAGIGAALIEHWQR

OXA-15 = molecular target: T2, OXA-15 (Pseudomonas aeruginosa, UniProt Q51574); assay: biochemical
T2 construct: made in house; host or cells: E. coli
T2 sequence (Q51574 22-275): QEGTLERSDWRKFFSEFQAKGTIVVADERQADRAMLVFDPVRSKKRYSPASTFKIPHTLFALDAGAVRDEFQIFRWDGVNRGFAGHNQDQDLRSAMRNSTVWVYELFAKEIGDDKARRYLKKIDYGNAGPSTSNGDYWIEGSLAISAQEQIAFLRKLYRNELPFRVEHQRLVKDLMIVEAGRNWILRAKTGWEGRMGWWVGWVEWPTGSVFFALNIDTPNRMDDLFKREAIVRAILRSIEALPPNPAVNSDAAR

PAE ampC = PAE ampC (Pseudomonas aeruginosa, UniProt P24735); assay: biochemical
PAE ampC, sequence (P24735 27-397): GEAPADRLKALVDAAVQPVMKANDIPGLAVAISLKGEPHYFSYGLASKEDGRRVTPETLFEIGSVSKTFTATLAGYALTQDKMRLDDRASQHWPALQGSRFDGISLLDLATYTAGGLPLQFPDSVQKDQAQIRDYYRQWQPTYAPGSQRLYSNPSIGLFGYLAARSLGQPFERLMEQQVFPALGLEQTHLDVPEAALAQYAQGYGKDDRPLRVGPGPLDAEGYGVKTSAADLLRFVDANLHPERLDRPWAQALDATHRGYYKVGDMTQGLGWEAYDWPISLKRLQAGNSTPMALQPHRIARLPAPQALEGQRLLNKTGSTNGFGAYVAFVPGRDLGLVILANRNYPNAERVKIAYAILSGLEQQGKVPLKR
Protocol: as §1, §2

OXA-40 = molecular target: T3, OXA-40 (Acinetobacter baumannii, UniProt Q8RLA6); assay: biochemical
T3 construct: made in house; host or cells: E. coli
T3 sequence (Q8RLA6 entry or part of it): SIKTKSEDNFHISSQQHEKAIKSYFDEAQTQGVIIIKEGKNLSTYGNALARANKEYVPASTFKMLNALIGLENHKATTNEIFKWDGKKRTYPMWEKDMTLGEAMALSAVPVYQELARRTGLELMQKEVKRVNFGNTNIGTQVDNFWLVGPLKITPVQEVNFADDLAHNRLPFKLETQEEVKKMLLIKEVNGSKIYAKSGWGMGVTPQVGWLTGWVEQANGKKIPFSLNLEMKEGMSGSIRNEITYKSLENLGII
Protocol: as §1, §2

P99 ampC = molecular target: T4, P99 ampC (Enterobacter cloacae, UniProt P05364); assay: biochemical
T4 construct: made in house; host or cells: E. coli
T4 sequence (P05364 21-381): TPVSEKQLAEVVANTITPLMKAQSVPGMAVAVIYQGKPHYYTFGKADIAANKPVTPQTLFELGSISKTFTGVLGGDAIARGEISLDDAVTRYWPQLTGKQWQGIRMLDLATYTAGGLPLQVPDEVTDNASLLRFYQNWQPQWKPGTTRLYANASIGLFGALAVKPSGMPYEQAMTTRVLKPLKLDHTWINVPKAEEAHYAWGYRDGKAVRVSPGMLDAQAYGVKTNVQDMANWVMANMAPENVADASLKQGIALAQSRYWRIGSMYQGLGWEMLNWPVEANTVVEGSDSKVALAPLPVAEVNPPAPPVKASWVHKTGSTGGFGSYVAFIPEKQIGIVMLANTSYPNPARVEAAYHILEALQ
Protocol: as §1, §2

SAU PC1 = SAU PC1 (Staphylococcus aureus, UniProt P00807); assay: biochemical
SAU PC1, sequence (P00807 25-281): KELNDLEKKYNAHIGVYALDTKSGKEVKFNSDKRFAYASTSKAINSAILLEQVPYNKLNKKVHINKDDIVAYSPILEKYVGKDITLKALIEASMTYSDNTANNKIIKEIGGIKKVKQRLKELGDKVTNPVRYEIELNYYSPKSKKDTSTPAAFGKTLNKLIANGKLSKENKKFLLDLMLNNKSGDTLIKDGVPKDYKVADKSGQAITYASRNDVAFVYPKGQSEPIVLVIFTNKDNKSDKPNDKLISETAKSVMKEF
Protocol: as §1, §2

CTX-M-15 = molecular target: T5, CTX-M-15 (Escherichia coli, UniProt Q9EXV5); assay: biochemical
T5 construct: made in house; host or cells: E. coli
T5 sequence (Q9EXV5 entry or part of it): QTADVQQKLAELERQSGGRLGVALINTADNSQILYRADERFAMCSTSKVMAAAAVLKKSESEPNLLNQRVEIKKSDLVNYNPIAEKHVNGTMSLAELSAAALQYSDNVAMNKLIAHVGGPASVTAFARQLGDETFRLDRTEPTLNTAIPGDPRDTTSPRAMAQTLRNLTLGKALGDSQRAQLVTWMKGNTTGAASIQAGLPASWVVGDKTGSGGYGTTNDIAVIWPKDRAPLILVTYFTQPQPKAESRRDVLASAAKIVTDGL

OXA-11 = molecular target: T6, OXA-11 (Pseudomonas aeruginosa, UniProt Q06778); assay: β-lactamase inhibitory activity, IC50 (nitrocefin hydrolysis); type: biochemical
T6 construct: made in house; host or cells: E. coli
T6 sequence (Q06778 21-266): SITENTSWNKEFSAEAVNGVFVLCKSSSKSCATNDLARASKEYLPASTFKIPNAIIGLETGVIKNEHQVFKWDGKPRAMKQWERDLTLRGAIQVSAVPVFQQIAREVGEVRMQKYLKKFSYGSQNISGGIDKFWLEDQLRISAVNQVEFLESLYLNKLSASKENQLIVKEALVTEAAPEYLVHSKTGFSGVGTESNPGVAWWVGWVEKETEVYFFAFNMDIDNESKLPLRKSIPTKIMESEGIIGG
Protocol: as §1, §2

OXA-58 = molecular target: T7, OXA-58 (Acinetobacter baumannii, UniProt Q2TR58); assay: as above; type: biochemical
T7 construct: made in house; host or cells: E. coli
T7 sequence (Q2TR58 19-280, species assumed): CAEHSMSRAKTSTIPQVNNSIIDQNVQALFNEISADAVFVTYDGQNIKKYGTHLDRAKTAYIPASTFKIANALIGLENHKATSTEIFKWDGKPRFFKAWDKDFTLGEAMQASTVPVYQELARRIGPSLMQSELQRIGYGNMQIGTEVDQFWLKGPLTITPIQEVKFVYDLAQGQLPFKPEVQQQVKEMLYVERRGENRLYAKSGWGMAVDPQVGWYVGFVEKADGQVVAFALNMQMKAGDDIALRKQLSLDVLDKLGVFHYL
Protocol: as §1, §2

[1] = molecular target: CMY-37 (Citrobacter freundii); assay: as above; type: biochemical
CMY-37 (Citrobacter freundii), sequence (A0A9R8 21-381): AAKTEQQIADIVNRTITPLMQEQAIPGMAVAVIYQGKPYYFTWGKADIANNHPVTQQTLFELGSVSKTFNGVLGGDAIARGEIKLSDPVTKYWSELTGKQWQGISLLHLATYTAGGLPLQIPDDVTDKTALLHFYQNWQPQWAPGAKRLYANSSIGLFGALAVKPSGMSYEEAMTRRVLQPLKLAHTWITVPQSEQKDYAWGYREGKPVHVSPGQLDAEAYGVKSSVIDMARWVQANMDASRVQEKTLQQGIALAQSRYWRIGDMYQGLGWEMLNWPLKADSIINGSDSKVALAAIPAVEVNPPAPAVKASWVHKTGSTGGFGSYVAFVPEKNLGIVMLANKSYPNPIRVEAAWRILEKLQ
Protocol: as §1, §2

[2] = system: Citrobacter freundii (CFR) isolates; assay: MIC of compounds alone and combined with antibacterials, broth microdilution (CLSI); type: cell-based; details: Citrobacter freundii
Protocol: (§3) Method 2: MIC of Compounds Alone and Combined with Antibacterials Against Bacterial Isolates.
(§4) Compounds of the present invention were assessed against genotyped bacterial strains (Table 3, 4) alone or in combination with an antibacterial (Table 2). […] Log phase bacterial suspensions were adjusted to a final density of 5·10^5 CFU/mL in cation-adjusted Mueller-Hinton broth (ca-MHB; Becton-Dickinson and Company) and added to each well (98 μL). Microplates were incubated for 16-20 h at 35° C. in ambient air. The MIC of the compounds was defined as the lowest concentration of said compounds that prevented bacterial growth as read by visual inspection. The MIC of ATB at each compound concentration was defined as the lowest concentration of ATB that prevented bacterial growth as read by visual inspection.

[3] = system: Escherichia coli (ECO) isolates; assay: as above; type: cell-based; details: Escherichia coli, alone
Protocol: as §3, §4

[4] = system: Klebsiella pneumoniae (KPN) isolates; assay: as above; type: cell-based
Protocol: as §3, §4

[5] = system: Enterobacter aerogenes (EAE) isolates; assay: as above; type: cell-based; details: Klebsiella aerogenes
Protocol: as §3, §4

[6] = system: Serratia marcescens (SMA) isolates; assay: as above; type: cell-based; details: Serratia marcescens
Protocol: as §3, §4

[7] = system: Providencia stuartii (PST) isolates; assay: as above; type: cell-based; details: Providencia stuartii
Protocol: as §3, §4

SHV-1 = molecular target: T8, SHV-1 (Klebsiella pneumoniae, UniProt P0AD64); assay: biochemical
T8 construct: made in house; host or cells: E. coli
T8 sequence (P0AD64 22-286): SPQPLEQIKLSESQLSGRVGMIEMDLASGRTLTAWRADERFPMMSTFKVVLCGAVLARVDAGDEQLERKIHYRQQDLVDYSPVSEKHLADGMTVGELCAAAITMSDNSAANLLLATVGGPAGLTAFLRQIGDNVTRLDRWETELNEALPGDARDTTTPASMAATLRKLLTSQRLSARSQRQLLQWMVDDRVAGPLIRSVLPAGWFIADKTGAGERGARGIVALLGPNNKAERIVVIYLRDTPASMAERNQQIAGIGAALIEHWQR

KPC-2 = molecular target: T9, KPC-2 (Klebsiella pneumoniae, UniProt Q9F663); assay: biochemical
T9 construct: made in house; host or cells: E. coli
T9 sequence (Q9F663 25-293 limits assumed): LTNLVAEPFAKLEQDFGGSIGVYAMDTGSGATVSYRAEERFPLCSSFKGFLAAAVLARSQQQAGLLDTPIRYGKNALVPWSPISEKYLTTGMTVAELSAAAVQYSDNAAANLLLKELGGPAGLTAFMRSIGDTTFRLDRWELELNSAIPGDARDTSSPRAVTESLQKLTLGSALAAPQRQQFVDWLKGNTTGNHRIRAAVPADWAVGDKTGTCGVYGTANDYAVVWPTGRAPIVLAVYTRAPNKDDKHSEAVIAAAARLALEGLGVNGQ

OXA-1 = molecular target: T10, OXA-1 (Escherichia coli, UniProt P13661); assay: biochemical
T10 construct: made in house; host or cells: E. coli
T10 sequence (P13661 26-276): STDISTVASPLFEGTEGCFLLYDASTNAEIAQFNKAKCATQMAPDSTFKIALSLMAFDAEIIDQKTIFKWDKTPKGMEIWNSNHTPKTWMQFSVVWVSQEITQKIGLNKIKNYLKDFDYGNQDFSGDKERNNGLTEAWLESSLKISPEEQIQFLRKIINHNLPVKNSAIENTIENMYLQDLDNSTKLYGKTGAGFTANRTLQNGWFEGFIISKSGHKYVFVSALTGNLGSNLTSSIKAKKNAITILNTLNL

OXA-48 = molecular target: T11, OXA-48 (Klebsiella pneumoniae, UniProt Q6XEC0); assay: biochemical
T11 construct: made in house; host or cells: E. coli
T11 sequence (Q6XEC0 23-265 limits assumed): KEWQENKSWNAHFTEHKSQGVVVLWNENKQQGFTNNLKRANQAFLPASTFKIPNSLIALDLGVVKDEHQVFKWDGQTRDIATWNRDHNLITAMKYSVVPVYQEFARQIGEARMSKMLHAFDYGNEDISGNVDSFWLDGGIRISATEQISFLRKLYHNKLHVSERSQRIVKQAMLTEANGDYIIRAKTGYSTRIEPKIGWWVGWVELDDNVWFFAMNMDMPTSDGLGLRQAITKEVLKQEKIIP

TEM-1 = molecular target: T12, TEM-1 (Escherichia coli, UniProt P62593); assay: β-lactamase inhibitory activity, IC50 (nitrocefin hydrolysis); type: biochemical
T12 construct: made in house; host or cells: E. coli
T12 sequence (P62593 24-286 limits assumed): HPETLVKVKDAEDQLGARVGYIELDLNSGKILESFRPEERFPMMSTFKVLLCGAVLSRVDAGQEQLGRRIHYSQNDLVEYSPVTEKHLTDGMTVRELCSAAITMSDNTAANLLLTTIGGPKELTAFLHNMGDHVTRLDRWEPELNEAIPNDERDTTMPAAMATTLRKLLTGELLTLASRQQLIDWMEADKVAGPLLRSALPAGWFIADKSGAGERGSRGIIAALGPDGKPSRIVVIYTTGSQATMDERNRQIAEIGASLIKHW

OXA-23 = molecular target: T13, OXA-23 (Acinetobacter baumannii, UniProt Q9L4P2); assay: biochemical
T13 construct: made in house; host or cells: E. coli
T13 sequence (Q9L4P2 18-273): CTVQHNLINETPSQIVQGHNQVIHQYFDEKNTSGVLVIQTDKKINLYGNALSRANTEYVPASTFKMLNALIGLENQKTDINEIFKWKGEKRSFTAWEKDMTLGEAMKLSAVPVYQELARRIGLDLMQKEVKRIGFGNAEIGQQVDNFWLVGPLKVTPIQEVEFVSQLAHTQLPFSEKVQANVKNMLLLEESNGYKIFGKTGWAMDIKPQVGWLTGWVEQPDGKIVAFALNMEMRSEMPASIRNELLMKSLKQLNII

[8] = system: Proteus mirabilis (PMI) isolates; assay: microbe, parasite or virus in culture; type: cell-based
Protocol: as §3, §4

[9] = Mouse oral bioavailability determination, CEFIXIME/Example 3 combination (Method 4); design: species or system Swiss Mouse; details: male, Swiss; Mouse; intravenous 30 mg/kg; AF1 titrated in plasma; read-out: AUC0-∞
Protocol: Water and food were available ad libitum throughout the study. Mouse were handled in accordance with the institutional and national guidelines for the care and use of laboratory animals. […] Drugs were administered by oral gavage using feeding needle. […] Plasma samples were stored at -80° C. until bioanalysis. […] Plasma samples bioanalysis and data analysis The plasma samples (20 μl) were thawed at 0° C. […] Standard samples were prepared by spiking the blank plasma into concentrations 10-5 000 ng/ml and otherwise treated as the samples. […] Mass spectrometric detection involved electrospray ionization in the negative mode followed by multiple reaction monitoring of the drugs and internal standard transitions. Actual drug concentrations were deduced from interpolation of the standard curve. The pharmacokinetic parameters were calculated using XLfit (IDBS) and Excel (Microsoft) software, using standard non-compartmental methods. The intraduodenal bioavailability was calculated by dividing the AUC obtained from the intraduodenal administration by the AUC obtained from the intravenous administration.

[10] = Rat intraduodenal bioavailability determination (Method 3); type: in vivo, Sprague-Dawley (SD) rats; details: male, Sprague-Dawley, AF1 titrated in plasma

OXA-51, sequence (Q5QT35 26-274): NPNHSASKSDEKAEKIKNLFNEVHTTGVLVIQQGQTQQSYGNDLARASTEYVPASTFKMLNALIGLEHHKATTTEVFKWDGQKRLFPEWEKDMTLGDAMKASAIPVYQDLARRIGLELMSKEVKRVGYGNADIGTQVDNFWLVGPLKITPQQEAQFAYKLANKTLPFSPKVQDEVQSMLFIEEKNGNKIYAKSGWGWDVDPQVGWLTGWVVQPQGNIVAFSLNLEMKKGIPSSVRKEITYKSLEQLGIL

Row | Compound | IC50 (SHV-12) [nM] | IC50 (OXA-15) [nM] | IC50 (PAE ampC) [nM] | IC50 (OXA-40) [nM] | IC50 (P99 ampC) [nM] | IC50 (SAU PC1) [nM] | IC50 (CTX-M-15) [nM] | IC50 (OXA-11) [nM] | IC50 (OXA-58) [nM] | IC50 [1] [nM] | IC50 (SHV-1) [nM] | IC50 (KPC-2) [nM] | IC50 (OXA-1) [nM] | IC50 (OXA-48) [nM] | IC50 (OXA-23) [nM] | also measured
1 | N#C[C@@H]1CC[C@@H]2CN1C(=O)N2OC(F)(F)C(=O)[O-].[Na+] [AF2, sodium 2-[[(2S,5R)-2-cyano-7-oxo-1,6-diazabicyclo[3.2.1]octan-6-yl]oxy]-2,2-difluoro-acetate] | 1.1 | 4 | 140 | 12 | 54 | 3.1 | 0.16 | 13 | 2.1 | 70 | 1.4 | 12 | 11 | 0.7 | 11 | IC50 (OXA-51; OXA-51, 30 min pre-incubation, nitrocefin 100 μM): 51 nM; MIC [2]: > 32 µg/mL; MIC ([3]; ECO 190317): > 32 µg/mL; MIC ([3]; ECO 190457): 16 µg/mL; MIC ([3]; ECO UFR16): > 32 µg/mL; MIC ([3]; ECO UFR20): > 32 µg/mL; MIC ([3]; ECO UFR61O): > 32 µg/mL; MIC ([3]; ECO UFR209): 32 µg/mL; MIC ([4]; KPN 131119, alone): >32 µg/mL; MIC ([4]; KPN 190270, alone): >32 µg/mL; MIC ([4]; KPN UFR25, alone): >32 µg/mL; MIC ([4]; KPN UFR66, alone): >32 µg/mL; MIC ([4]; KPN UFR68, alone): >32 µg/mL; MIC ([4]; Klebsiella pneumoniae): > 32 µg/mL; MIC [5]: > 32 µg/mL; MIC [6]: > 32 µg/mL; MIC [7]: > 32 µg/mL; IC50 (TEM-1): 0.96 nM; MIC ([8]; PMI UFR127, alone): >32 µg/mL; MIC ([8]; Proteus mirabilis): > 32 µg/mL
2 | NC(=O)[C@@H]1CC[C@@H]2CN1C(=O)N2OC(F)(F)C(=O)[O-].[Na+] [AF1] | 1.1 | 71 | 660 | 2100 | 550 | 71 | 0.21 | 1000 | 400 | 740 | 0.12 | 40 | 1100 | 75 | 1700 | IC50 (OXA-51): 1700 nM; AUC(0-inf) [9]: 11200 ng·h/mL; AUC(0-inf) ([10]; intravenous 10 mg/kg): 4130 ng·h/mL; AUC(0-inf) ([10]; intravenous 20 mg/kg, Phosphate pH 7.4, solution): 12500 ng·h/mL; IC50 (TEM-1; TEM-1, 30 min pre-incubation, nitrocefin 100 μM, read-out: IC50): 0.22 nM
